The test system of test [1] is LM-TK^− cells (α2MR^+/LRP, uPAR^−). The test can be described thus: Ligand binding assay: binding of 125I-labeled scuPA, tcuPA and their suPAR complexes to LM-TK^− cells. The conditions noted are these: for promotion of scuPA binding to LM-TK^− cells: 1B. It counts as cell-based. The procedure:
Briefly, LM-TK^− cells were suspended in DMEM (GIBCO, Grand Island, N.Y.) containing 10% (v/v) fetal calf serum and were grown to confluence at 37° C. overnight in 96-well Falcon™ multiwell tissue culture dishes (Becton Dickinson, Lincoln Park, N.J.). The cells were chilled for one hour on ice and were washed twice with chilled binding buffer. ^125I-labeled ligands, with or without 50-fold molar excess of non-labeled ligands, were added to the cells in the presence or absence of 0-300 micromolar peptide, and the cell cultures were incubated for two hours at 4° C. The cells were washed four times with binding buffer, solubilized in 0.1 N NaOH, and the cell extract was assessed for radioactivity. […] Assays were repeated at least three times, and data presented herein represent the mean and standard deviation.

The target of test [2] is T1, PAI-1 (Homo sapiens, UniProt P05121).
T1 construct: purchased American Diagnostica, Inc. (Greenwich, Conn.)
As to the kind of experiment: Assessment of plasminogen activator activity (inhibition of PAI-1 activity, tcuPA as substrate of PAI-1). The format is biochemical. The conditions noted are these: 5 nanomolar tcuPA, 200 micromolar peptide, 25 nanomolar PAI-1; FIG. 4. As for the experimental part:
A solution comprising 5 nanomolar tcuPA, 0 or 200 micromolar peptide EEIIMD (SEQ ID NO: 3), and 0 or 200 micromolar peptide REIIMD (SEQ ID NO: 4) was incubated for thirty minutes. The solution was then added to a reaction mixture comprising 25 nanomolar PAI-1, 50 nanomolar Glu-plasminogen, and 50 micromolar chromogenic substrate, and the optical density of the mixture at 405 nanometers was measured continuously, as described (Higazi et al., 1996, Blood 87:3545-3549).

Test [3] deals with purified α2MR/LRP. The test can be described thus: Solid phase binding assay of 125I-labeled ligands to immobilized purified α2MR/LRP. As for the experimental part:
To measure the binding of labeled ligands to α2MR/LRP, a 96-well microtiter plate was incubated with 3 micrograms per milliliter purified α2MR/LRP or with 3 micrograms per milliliter BSA in TBS containing 4 millimolar Ca^2+ overnight at 4° C. The buffer was removed, and the non-reacted sites on the plate were blocked using a blocking solution comprising TBS, 4 millimolar Ca^2+, 0.05% (v/v) Tween-20, and 3% (w/v) BSA. The wells of the plate were filled with the blocking solution and incubated for one hour at 4° C. Next, the blocking solution was removed, each well was filled with a solution comprising blocking solution and 0 or 200 nanomolar rRAP, and the plate was incubated at 4° C. for another hour. Binding of ^125I-labeled ligands to immobilized α2MR/LRP was determined as described (Higazi et al., 1996, Blood 88:542-551; Nykjaer et al., 1993, J. Biol. Chem. 268:15048-15055).

Test [4] relates to LM-TK^− cells. The test can be described thus: Internalization and degradation of 125I-scuPA by LM-TK^− cells. It counts as cell-based. The procedure: LM-TK^− cells were grown overnight at 37° C. to confluence in 48-well Falcon™ Multiwell tissue culture dishes (Becton Dickinson, Lincoln Park, N.J.). Cells were prechilled on ice for one hour, washed twice with a buffer comprising TBS, 4 millimolar Ca^2+, and 3% (w/v) BSA, and incubated for one hour at room temperature with the same buffer or with buffer supplemented with either 400 nanomolar rRAP or 100 micrograms per milliliter IgG anti-α2MR/LRP. The buffer was removed, ^125I -scuPA was added to the cells, and the cells were incubated for two hours at 4° C. in the presence of 0-300 micromolar peptide, 0 or 400 nanomolar rRAP, and 0 or 100 micrograms per milliliter anti-α2MR/LRP. Unbound ligand was removed and cells were washed five times with the buffer. DMEM comprising 4 millimolar Ca^2+, 0 or 400 nanomolar rRAP, and 0 or 100 micrograms per milliliter anti-α2MR/LRP was added to the cells, and the cells were incubated for eighteen hours at 37° C. […] Briefly, to measure internalization, cells were washed twice with the buffer, a solution comprising 50 millimolar glycine 150 millimolar NaCl at pH 3.0 was added to the cells, and the cells were incubated for fifteen minutes at 4° C. to dissociate cell surface-bound ligands. […] Radioactivity in the cell extract was assessed.

The target of test [5] is scuPA-uPAR complex (Homo sapiens, UniProt P00749). As to the kind of experiment: scuPA-uPAR complex formation. It counts as binding.

Entries after “also recorded” stand apart in the source; their conditions may differ.

“EEIIMD [hexapeptide homologous with amino acids 350-355 of PAI-1]”: the “effect on binding of tcuPA to LM-TK^− cells” value in test [1] is “failed to stimulate binding of tcuPA; also recorded: had no effect”. Moreover, in test [1] (FIG. 1A), the “promotion of scuPA binding to LM-TK^− cells” value was “promoted binding”. The “peptide concentration giving near-maximal effect on scuPA binding to LM-TK^− cells” value in test [1] (FIG. 1B) is given as “approximately 300 micromolar”. Moreover, in test [1] (FIG. 3), the “effect on binding of the scuPA-suPAR complex to LM-TK^− cells” value was “minimal increase” and the “effect on binding of the tcuPA-suPAR complex to LM-TK^− cells” value is recorded as “had no effect”. Also, in test [1] (presence versus absence of the peptide, two hours at 4° C.), the “increase in the value of Bmax for scuPA binding to LM-TK^− cells” value is reported as “four-fold”. Besides, in test [1] (read-out: peptide concentration for half maximal stimulation of scuPA binding to LM-TK^− cells, FIG. 1B), the EC50 is roughly 50 µM. In test [1] (scuPA preincubated with PAI-1, FIG. 2), the “scuPA-binding-promoting effect in the presence of PAI-1” value is “identical to the effect observed in the absence of PAI-1”. The “inhibition of PAI-1 activity” value in test [2] is on record as “inhibits PAI-1 activity; also recorded: competitive inhibitor of PAI-1 binding to tcuPA”. Also, in test [3], the “effect on binding of tcuPA to purified α2MR/LRP” value is recorded as “had no effect” and the “effect on binding of the scuPA-suPAR complex to α2MR/LRP” value is given as “had no effect”. The “effect on binding of scuPA to purified α2MR/LRP” value in test [3] (FIG. 5A) is “promoted binding of scuPA to purified α2MR/LRP”. Further, the “effect on internalization and degradation of scuPA by LM-TK^− cells” value in test [4] (eighteen hours at 37° C., FIG. 6) is “promoted both internalization and degradation; also recorded: accelerated the rate of internalization and degradation”. Besides, the “effect on scuPA-uPAR complex formation” value in test [5] is “did not affect”.

On to “EEIIMR [hexapeptide, carboxyl terminal Asp of EEIIMD substituted by Arg; control peptide]”, for which, in test [1] (LM-TK^− cells, FIG. 1A), the “scuPA-binding-promoting activity relative to that of peptide EEIIMD” value was “approximately 20%”. The “inhibition of PAI-1 activity” value in test [2] was “did not inhibit PAI-1 activity”.

For the substance “REIIMD [hexapeptide, amino terminal Glu of EEIIMD substituted by Arg]”, in test [1] (FIG. 1A), the “promotion of scuPA binding to LM-TK^− cells” value was “nearly as potent a promoter of scuPA binding to LM-TK^− cells as was peptide EEIIMD”.

Turning to “rRAP: recombinant 39 kilodalton α2MR/LRP. (receptor-associated protein), inhibits ligand binding to α2MR/LRP [reference compound]”, the “inhibition of EEIIMD-promoted binding of scuPA to LM-TK^− cells” value in test [1] (400 nanomolar rRAP, FIG. 5B) is recorded as “approximately 70%”. Also, the “effect on EEIIMD-promoted binding of scuPA to purified α2MR/LRP” value in test [3] (200 nanomolar rRAP, FIG. 5A) was “inhibited”. Besides, the “inhibition of EEIIMD-promoted scuPA internalization and degradation by LM-TK^− cells” value in test [4] (400 nanomolar rRAP) is recorded as “approximately 70%”.

For the origin of these results see patent US7247611B2, “Compositions and methods for promoting internalization and degradation of urokinase-type plasminogen activator” (The Trustees of the University of Pennsylvania, priority 1997, dated 2007).
